# Experimental data as given in PubChem BioAssay AID1963841 (Molecular Pharmacology Branch, DTP, NCI, 2024).
# Tested on: 439559-082-T-J2-PDC spheroid viability
# Assay: Anticancer human tumor 439559-082-T-J2-PDC patient-derived colon adenocarcinoma cell line growth inhibition [POLQ]
# Conditions: spheroids with HUVEC and MSC; for IC50: curve of first compound; for viability, T/C: stronger effect = lower value
# Outline: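 Growth inhibition in 3D: complex spheroids (tumor PDC, HUVEC, MSC) treated with POLQ inhibitor combinations; where Cmax unknown, highest tested concentration 10 microM, except SN-38 at 1 microM.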
# [1] = second compound 0.0316 µM, first compound 0.0316 µM
# [2] = second compound 0.0316 µM, first compound 0.1 µM
# [3] = second compound 0.0316 µM, first compound 0.316 µM
# [4] = second compound 0.0316 µM, first compound 1 µM
# [5] = second compound 0.0316 µM, first compound 3.16 µM
# [6] = second compound 0.0316 µM, first compound 10 µM
# [7] = second compound 0.1 µM, first compound 0.0316 µM
# [8] = second compound 0.1 µM, first compound 0.1 µM
# [9] = second compound 0.1 µM, first compound 0.316 µM
# [10] = second compound 0.1 µM, first compound 1 µM
# [11] = second compound 0.1 µM, first compound 3.16 µM
# [12] = second compound 0.1 µM, first compound 10 µM
# [13] = second compound 0.316 µM, first compound 0.0316 µM
# [14] = second compound 0.316 µM, first compound 0.1 µM
# [15] = second compound 0.316 µM, first compound 0.316 µM
# [16] = second compound 0.316 µM, first compound 1 µM
# [17] = second compound 0.316 µM, first compound 3.16 µM
# [18] = second compound 0.316 µM, first compound 10 µM
# [19] = second compound 1 µM, first compound 0.0316 µM
# [20] = second compound 1 µM, first compound 0.1 µM
# [21] = second compound 1 µM, first compound 0.316 µM
# [22] = second compound 1 µM, first compound 1 µM
# [23] = second compound 1 µM, first compound 3.16 µM
# [24] = second compound 1 µM, first compound 10 µM
# [25] = second compound 3.16 µM, first compound 0.0316 µM
# [26] = second compound 3.16 µM, first compound 0.1 µM
# [27] = second compound 3.16 µM, first compound 0.316 µM
# [28] = second compound 3.16 µM, first compound 1 µM
# [29] = second compound 3.16 µM, first compound 3.16 µM
# [30] = second compound 3.16 µM, first compound 10 µM
# [31] = second compound 10 µM, first compound 0.0316 µM
# [32] = second compound 10 µM, first compound 0.1 µM
# [33] = second compound 10 µM, first compound 0.316 µM
# [34] = second compound 10 µM, first compound 1 µM
# [35] = second compound 10 µM, first compound 3.16 µM
# [36] = second compound 10 µM, first compound 10 µM
# 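Note: spheroids exposed to compounds for seven days before readout.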
# 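Throughout, for viability, T/C: 100% = DMSO vehicle control viability.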
compound,measurement,setting,value
Nc1ccn(C2OC(CO)C(O)C2(F)F)c(=O)n1 (stereo not drawn) + Cc1cccc(N(C)C(=O)C2C(O)CCN2c2nc(C)cc(C(F)(F)F)c2C#N)c1,IC50,second compound 0.0316 µM,0.923 µM
same,IC50,second compound 0.1 µM,0.952 µM
same,IC50,second compound 0.316 µM,0.829 µM
same,IC50,second compound 1 µM,0.676 µM
same,IC50,second compound 3.16 µM,0.802 µM
same,IC50,second compound 10 µM,0.829 µM
same,"viability, T/C",[1],77.8%
same,"viability, T/C",[2],71.7%
same,"viability, T/C",[3],60.6%
same,"viability, T/C",[4],49.9%
same,"viability, T/C",[5],37.5%
same,"viability, T/C",[6],30.6%
same,"viability, T/C",[7],85.4%
same,"viability, T/C",[8],76.9%
same,"viability, T/C",[9],63.8%
same,"viability, T/C",[10],48.5%
same,"viability, T/C",[11],39.8%
same,"viability, T/C",[12],32.1%
same,"viability, T/C",[13],82.5%
same,"viability, T/C",[14],75.8%
same,"viability, T/C",[15],63.3%
same,"viability, T/C",[16],47.5%
same,"viability, T/C",[17],35.4%
same,"viability, T/C",[18],29.6%
same,"viability, T/C",[19],83.2%
same,"viability, T/C",[20],76.1%
same,"viability, T/C",[21],61.3%
same,"viability, T/C",[22],43.1%
same,"viability, T/C",[23],37.7%
same,"viability, T/C",[24],30.9%
same,"viability, T/C",[25],79.8%
same,"viability, T/C",[26],69.3%
same,"viability, T/C",[27],59.4%
same,"viability, T/C",[28],47.1%
same,"viability, T/C",[29],38.3%
same,"viability, T/C",[30],31.4%
same,"viability, T/C",[31],80.3%
same,"viability, T/C",[32],70.6%
same,"viability, T/C",[33],57.1%
same,"viability, T/C",[34],49.5%
same,"viability, T/C",[35],40%
same,"viability, T/C",[36],35%
COc1cc2cc(C(=O)CCC(=O)O)sc2cc1OC + Nc1ccc(C#CCN(C(=O)Cc2ncc(C(F)(F)F)cc2C(F)(F)F)c2ccc(F)cc2)nn1,IC50,second compound 0.0316 µM,> 10 µM
same,IC50,second compound 0.1 µM,> 10 µM
same,IC50,second compound 0.316 µM,> 10 µM
same,IC50,second compound 1 µM,> 10 µM
same,IC50,second compound 3.16 µM,> 10 µM
same,IC50,second compound 10 µM,> 10 µM
same,"viability, T/C",[1],99.2%
same,"viability, T/C",[2],99.3%
same,"viability, T/C",[3],96.7%
same,"viability, T/C",[4],95.8%
same,"viability, T/C",[5],105%
same,"viability, T/C",[6],97.5%
same,"viability, T/C",[7],95%
same,"viability, T/C",[8],107%
same,"viability, T/C",[9],93.1%
same,"viability, T/C",[10],99.2%
same,"viability, T/C",[11],93%
same,"viability, T/C",[12],98.7%
same,"viability, T/C",[13],94.5%
same,"viability, T/C",[14],101%
same,"viability, T/C",[15],97.4%
same,"viability, T/C",[16],93.4%
same,"viability, T/C",[17],98.1%
same,"viability, T/C",[18],91.8%
same,"viability, T/C",[19],96.2%
same,"viability, T/C",[20],103%
same,"viability, T/C",[21],90.3%
same,"viability, T/C",[22],93.6%
same,"viability, T/C",[23],99.3%
same,"viability, T/C",[24],88.4%
same,"viability, T/C",[25],90.5%
same,"viability, T/C",[26],88.8%
same,"viability, T/C",[27],98.6%
same,"viability, T/C",[28],91.3%
same,"viability, T/C",[29],97%
same,"viability, T/C",[30],102%
same,"viability, T/C",[31],107%
same,"viability, T/C",[32],101%
same,"viability, T/C",[33],98.2%
same,"viability, T/C",[34],98.8%
same,"viability, T/C",[35],96.4%
same,"viability, T/C",[36],82.6%
COc1cccc2c1C(=O)c1c(O)c3c(c(O)c1C2=O)CC(O)(C(=O)CO)CC3OC1CC(N)C(O)C(C)O1 (stereo not drawn) + COC1C(OC(N)=O)C(O)C(Oc2ccc3c(O)c(NC(=O)c4ccc(O)c(CC=C(C)C)c4)c(=O)oc3c2C)OC1(C)C,IC50,second compound 0.0316 µM,9.87 µM
same,IC50,second compound 0.1 µM,> 10 µM
same,IC50,second compound 0.316 µM,6.36 µM
same,IC50,second compound 1 µM,9.5 µM
same,IC50,second compound 3.16 µM,7.79 µM
same,IC50,second compound 10 µM,7.69 µM
same,"viability, T/C",[1],94.1%
same,"viability, T/C",[2],102%
same,"viability, T/C",[3],88.1%
same,"viability, T/C",[4],70%
same,"viability, T/C",[5],64.5%
same,"viability, T/C",[6],47.9%
same,"viability, T/C",[7],105%
same,"viability, T/C",[8],108%
same,"viability, T/C",[9],82.9%
same,"viability, T/C",[10],68.2%
same,"viability, T/C",[11],59.9%
same,"viability, T/C",[12],49.6%
same,"viability, T/C",[13],97.7%
same,"viability, T/C",[14],98.8%
same,"viability, T/C",[15],77.3%
same,"viability, T/C",[16],70.2%
same,"viability, T/C",[17],59.7%
same,"viability, T/C",[18],44.3%
same,"viability, T/C",[19],98.8%
same,"viability, T/C",[20],104%
same,"viability, T/C",[21],84.7%
same,"viability, T/C",[22],65.8%
same,"viability, T/C",[23],56.1%
same,"viability, T/C",[24],47.7%
same,"viability, T/C",[25],104%
same,"viability, T/C",[26],98.9%
same,"viability, T/C",[27],85.2%
same,"viability, T/C",[28],66.4%
same,"viability, T/C",[29],61.8%
same,"viability, T/C",[30],46.2%
same,"viability, T/C",[31],95.3%
same,"viability, T/C",[32],105%
same,"viability, T/C",[33],85.9%
same,"viability, T/C",[34],67.5%
same,"viability, T/C",[35],61.4%
same,"viability, T/C",[36],45.4%
O=C(c1cc(Cc2n[nH]c(=O)c3ccccc23)ccc1F)N1CCN(C(=O)C2CC2)CC1 + Cc1cccc(N(C)C(=O)C2C(O)CCN2c2nc(C)cc(C(F)(F)F)c2C#N)c1,IC50,second compound 0.0316 µM,> 10 µM
same,IC50,second compound 0.1 µM,> 10 µM
same,IC50,second compound 0.316 µM,> 10 µM
same,IC50,second compound 1 µM,> 10 µM
same,IC50,second compound 3.16 µM,> 10 µM
same,IC50,second compound 10 µM,> 10 µM
same,"viability, T/C",[1],95.8%
same,"viability, T/C",[2],103%
same,"viability, T/C",[3],107%
same,"viability, T/C",[4],107%
same,"viability, T/C",[5],95%
same,"viability, T/C",[6],92.1%
same,"viability, T/C",[7],103%
same,"viability, T/C",[8],98.7%
same,"viability, T/C",[9],101%
same,"viability, T/C",[10],109%
same,"viability, T/C",[11],94.4%
same,"viability, T/C",[12],101%
same,"viability, T/C",[13],103%
same,"viability, T/C",[14],100%
same,"viability, T/C",[15],98.4%
same,"viability, T/C",[16],108%
same,"viability, T/C",[17],102%
same,"viability, T/C",[18],97.1%
same,"viability, T/C",[19],103%
same,"viability, T/C",[20],106%
same,"viability, T/C",[21],102%
same,"viability, T/C",[22],103%
same,"viability, T/C",[23],98.8%
same,"viability, T/C",[24],98.8%
same,"viability, T/C",[25],94%
same,"viability, T/C",[26],106%
same,"viability, T/C",[27],98.4%
same,"viability, T/C",[28],98.3%
same,"viability, T/C",[29],103%
same,"viability, T/C",[30],95.2%
same,"viability, T/C",[31],97.9%
same,"viability, T/C",[32],91.4%
same,"viability, T/C",[33],95.3%
same,"viability, T/C",[34],98.3%
same,"viability, T/C",[35],97.5%
same,"viability, T/C",[36],83.6%
